Reference: PMC10041525, “New Dual Inhibitors of Bacterial Topoisomerases with Broad-Spectrum Antibacterial Activity and In Vivo Efficacy against Vancomycin-Intermediate Staphylococcus aureus” (Journal of Medicinal Chemistry, 2023)

Columns and labels:
[1] = system: 100 A. baumannii strains (50 MDR, 50 non-MDR); assay: MIC broth microdilution at IHMA Europe, panel of 100 strains; type: cell-based
E. coli ATCC 25922 = assay: IHMA QC MIC; type: cell-based

piperacillin/tazobactam [Piperacillin Tazobactam]
36%: Cumulative % at MIC ([1]; all n=100, MIC 0.5 µg/mL)
35%: Cumulative % at MIC ([1]; all n=100, MIC ≤[…])
0%: Percentage I ([1]; MDR n = 50) | Percentage S ([1]; MDR n = 50) | Percentage I ([1]; all n = 100, CLSI breakpoints) | Percentage I ([1]; non-MDR n = 50) | Percentage R ([1]; non-MDR n = 50)
50: No. of isolates at MIC ([1]; MDR n=50, MIC >128 µg/mL) | No. of isolates at MIC ([1]; all n=100, MIC >128 µg/mL)
72%: Cumulative % at MIC ([1]; non-MDR n=50, MIC 0.5 µg/mL)
1: No. of isolates at MIC ([1]; all n=100, MIC 0.5 µg/mL) | No. of isolates at MIC ([1]; all n=100, MIC 1 µg/mL) | No. of isolates at MIC ([1]; non-MDR n=50, MIC 0.5 µg/mL) | No. of isolates at MIC ([1]; non-MDR n=50, MIC 1 µg/mL)
74%: Cumulative % at MIC ([1]; non-MDR n=50, MIC 1 µg/mL)
>128 µg/mL: MIC ([1]; A. baumannii IHMA 2193607, Venezuela 2020, MDR) | MIC ([1]; A. baumannii IHMA 2195460, Italy 2020, MDR) | MIC ([1]; A. baumannii IHMA 2196914, South Africa 2020, MDR) | MIC ([1]; A. baumannii IHMA 2196959, South Africa 2020, MDR) | MIC ([1]; A. baumannii IHMA 2203763, Spain 2020, MDR) | MIC ([1]; A. baumannii IHMA 2205144, Korea, South 2020, MDR) | MIC ([1]; A. baumannii IHMA 2206459, Taiwan 2020, MDR) | MIC ([1]; A. baumannii IHMA 2216586, Taiwan 2020, MDR) | MIC ([1]; A. baumannii IHMA 2224017, Panama 2020, MDR) | MIC ([1]; A. baumannii IHMA 2231797, Greece 2020, MDR) | MIC ([1]; A. baumannii IHMA 2233099, Guatemala 2020, MDR) | MIC ([1]; A. baumannii IHMA 2233430, Kazakhstan 2020, MDR) | MIC ([1]; A. baumannii IHMA 2238964, Thailand 2020, MDR) | MIC ([1]; A. baumannii IHMA 2261047, Belgium 2020, MDR) | MIC ([1]; A. baumannii IHMA 2274234, South Africa 2020, MDR) | MIC ([1]; A. baumannii IHMA 2274364, South Africa 2020, MDR) | MIC ([1]; A. baumannii IHMA 2275751, Jordan 2020, MDR) | MIC ([1]; A. baumannii IHMA 2316205, United States 2020, MDR) | MAX (maximum MIC; all strains inhibited) ([1]; MDR n = 50) | MIC50 ([1]; MDR n = 50) | MIC90 ([1]; MDR n = 50) | MIN (minimum MIC) ([1]; MDR n = 50) | MAX (maximum MIC; all strains inhibited) ([1]; all isolates n = 100) | MIC90 ([1]; all isolates n = 100)
1 µg/mL: MIC ([1]; A. baumannii IHMA 2215307, Hong Kong 2020, Non-MDR)
3: No. of isolates at MIC ([1]; all n=100, MIC […] µg/mL) | No. of isolates at MIC ([1]; non-MDR n=50, MIC […] µg/mL)
2: No. of isolates at MIC ([1]; all n=100, MIC 2 µg/mL) | No. of isolates at MIC ([1]; non-MDR n=50, MIC 2 µg/mL)
35: No. of isolates at MIC ([1]; all n=100, MIC ≤[…]) | No. of isolates at MIC ([1]; non-MDR n=50, MIC ≤[…])
16 µg/mL: MIC ([1]; A. baumannii IHMA 2224303, Panama 2020, Non-MDR) | MIC50 ([1]; all isolates n = 100) | MAX (maximum MIC) ([1]; non-MDR n = 50)
2 µg/mL: MIC (QC, repeated tests) (E. coli ATCC 25922)
37%: Cumulative % at MIC ([1]; all n=100, MIC 1 µg/mL)
39%: Cumulative % at MIC ([1]; all n=100, MIC 2 µg/mL)
≤0.25 µg/mL: MIC ([1]; A. baumannii IHMA 2206507, Taiwan 2020, Non-MDR) | MIC ([1]; A. baumannii IHMA 2223200, Colombia 2020, Non-MDR) | MIC ([1]; A. baumannii IHMA 2233548, Kazakhstan 2020, Non-MDR) | MIC ([1]; A. baumannii IHMA 2239052, Thailand 2020, Non-MDR) | MIC ([1]; A. baumannii IHMA 2261633, Canada 2020, Non-MDR) | MIC ([1]; A. baumannii IHMA 2275237, Chile 2020, Non-MDR) | MIN (minimum MIC) ([1]; all isolates n = 100) | MIC50 ([1]; non-MDR n = 50) | MIN (minimum MIC) ([1]; non-MDR n = 50)
70%: Cumulative % at MIC ([1]; non-MDR n=50, MIC ≤[…])
4 µg/mL: MIC ([1]; A. baumannii IHMA 2212575, Hungary 2020, Non-MDR) | MIC90 ([1]; non-MDR n = 50)
100%: Percentage R ([1]; MDR n = 50) | Cumulative % at MIC ([1]; MDR n=50, MIC >128 µg/mL) | Cumulative % at MIC ([1]; all n=100, MIC >128 µg/mL) | Percentage S ([1]; non-MDR n = 50) | Cumulative % at MIC ([1]; non-MDR n=50, MIC […] µg/mL)
78%: Cumulative % at MIC ([1]; non-MDR n=50, MIC 2 µg/mL)
50%: Percentage R ([1]; all n = 100, CLSI breakpoints) | Percentage S ([1]; all n = 100, CLSI breakpoints) | Cumulative % at MIC ([1]; all n=100, MIC […] µg/mL)
